# Square brackets hold non-standard residues; d marks the D form. Peptide text beside a SMILES is read from it. Arg(Me) = CNC(=N)NCCC[C@H](N)C(=O)O; d3Pal = N[C@H](Cc1cccnc1)C(=O)O; azaGly = NNC(=O)O
# Test system: Colon organoid
# Assay type: functional, Homo sapiens
row,SMILES,Cell Viability Ratio
1,C[C@H](NC(=O)Nc1cc2[nH]ncc2c(CO)n1)c1ccccn1 [ERKi-NC],1.034
2,Cn1cnc2c(F)c(Nc3ccc(Br)cc3Cl)c(C(=O)NOCCO)cc21 [SELUMETINIB],1.4315
3,Cc1c(Oc2ccc(F)cc2)c(OC(C)C)nn1-c1ccc(C2CC2)cn1 [IPP/CNRS-A019],1.225
4,COc1cc(Nc2nc(C)cc(-c3cnn4nc(OC)ccc34)n2)cc(C(F)(F)F)c1,0.9824
5,Cc1ccc2[nH]c(CNCCCc3ccncc3)cc(=O)c2c1 [UCSF924NC],1.116
6,CC(=O)Nc1c(F)cc(C(=O)N[C@H]2CC[C@H](O)CC2)cc1O[C@@H](C)c1ccccc1 [GSK046],0.8182
7,Cc1cnc(-c2cc(Cl)ccc2F)cc1-n1c(=O)n(CC(N)=O)c2ccccc21 [Al11],1.079
8,CCC(=O)N[C@@H]1CC[C@H](C(=O)N(C)c2ccc(-c3nc4ccccc4o3)cc2)C1 [BI 99990],1.309
9,Cc1c(N2CCCC2)nc2ccc(Br)cc2c1C(=O)NC[C@H](CCC(=O)O)c1ccccc1Cl [BAY-6672],0.9418
10,Cc1cc(-n2nc(Cc3cc(F)cc(C(F)(F)F)c3)nc2C)ccc1C(N)=O [TP-024],0.8967
11,Cc1c(NC(=O)c2ccc(C(C)(C)C)cc2)cccc1-c1cn(C)c(=O)c(Nc2ccc(C(=O)N3CCOCC3)cc2)n1,0.9821
12,C[C@@]1(Cc2ccc(C#N)cc2)C(=O)N(c2cc(Cl)cc(Cl)c2)c2ncc(C(=O)NC3(c4nc(C5CCC5)no4)CC3)n21 [BI 9446],1.099
13,CC(C)C(=O)Nc1n[nH]c2cc(-c3cccc(NS(=O)(=O)C4CC4)c3)ccc12,1.005
14,O=C(O)c1ccc(-c2coc3ncc(-c4ccccc4)cc23)cc1Cl,0.9757
15,C[C@@H]1CN(c2cc(-c3nn(C)c4ccc(OC5(C)CC5)cc34)ncn2)C[C@H](C)O1 [MLi-2-NC],1.036
16,Cn1nc(C(=O)NCc2ccc(C(=O)O)cc2)cc1-c1ccc2[nH]ccc2c1 [BI 4395],1.056
17,O=C(NCc1ncc(C(F)(F)F)cc1Cl)c1ccc2c(c1)C1(CCS(=O)(=O)CC1)[C@@H](C1CC1)N2S(=O)(=O)c1ccc(F)cc1 [BAY-786],1.0741
18,COc1ccc2c(c1)O[C@H](c1ccc(OC)c(OC)c1)C[C@@H]2NC(=O)C1(c2ccc3c(c2)OC(F)(F)O3)CC1 [A-1596584],0.985
19,COc1ccc2cc(OCC3(C(=O)O)CN(C(=O)c4ccc(F)cc4)C3)ccc2c1 [PF-04418948],1.076
20,CO[C@H]1CC[C@H](CNc2ccc(S(=O)(=O)NC(=O)c3ccc(N4CCN(CC5=C(c6ccc(Cl)cc6)CC(C)(C)CC5)CC4)cc3Oc3cnc4[nH]ccc4c3)cc2[N+](=O)[O-])CC1 [A-1211212],0.9488
21,CCOc1cn(-c2ccc(F)cc2C)nc1C(=O)Nc1ccc(Oc2ccnc3cc(OC)c(OC)cc23)c(F)c1,0.8903
22,O=C1NC(c2ccccn2)Sc2ccccc21 (centres undefined) [BTZO-4],1.041
23,COc1cc(N(C)c2ccnc3ccc(C(F)(F)F)cc23)cc(OC)c1OC,0.896
24,Cn1cc(-c2ccc3occ(-c4ccccc4-c4ccccc4)c3n2)cn1,0.9405
25,CC(C)CC(=O)N1CCc2nc(-c3ccc(Br)cc3)nc(N(C)Cc3ccccc3)c2C1 [THPP-1-NC],1.2658

row,SMILES,Cell Viability Ratio
1,Cc1cnc(-c2cc(Cl)ccc2F)cc1-n1c(=O)n(CC(N)=O)c2cnccc21 [TP-008],1.1125
2,Cc1cccc(-c2cnc3occ(-c4ccc(C(=O)O)c(C5CCCC5)c4)c3c2)c1,0.9583
3,CC(=O)c1c(NS(C)(=O)=O)c2cc(-c3ccc(Cl)cc3)c(-c3ccc(Cl)cc3Cl)nc2n(C)c1=O [MRL-CB1-NC],1.02
4,COc1cc(Nc2ccnc3ccc(Br)cc23)cc(OC)c1OC,1.477
5,CNC(=N)NCCC[C@H](NC(=O)[C@H](CC(C)C)NC(=O)NNC(=O)[C@H](Cc1ccccc1)NC(=O)[C@H](CO)NC(=O)[C@H](CC(N)=O)NC(=O)[C@@H](Cc1cccnc1)NC(=O)[C@H](N)Cc1ccc(O)cc1)C(=O)NCC(N)=O [KISS1-543] (H-[dY][d3Pal]NSF[azaGly]L[Arg(Me)]G-NH2),1.03
6,CN(C)[C@H]1CCN(c2cc(-c3ccccc3)nc3ccnn23)C1 [(S)-ZINC-3573],1.093
7,CN1CCN(Cc2cc(NC(=O)c3ccc4c(c3)CN(c3ccccc3)CC4)cc(C(F)(F)F)c2)CC1,1.189
8,CCS(=O)(=O)c1cc2cc(C[C@@](O)(CC(C)(C)c3ccc(F)cc3C(N)=O)C(F)(F)F)[nH]c2cn1 [BI 3047],1.1136
9,CNC(=O)Nc1ccc2c(c1)[C@@]1(CC2)OC(=O)N(CC(=O)N(Cc2ccc(F)cc2)[C@@H](C)C(F)(F)F)C1=O [A-486],0.9599
10,CNC(=O)Nc1ccc2c(c1)CC[C@@]21OC(=O)N(CC(=O)N(Cc2ccc(F)cc2)[C@@H](C)C(F)(F)F)C1=O [A-485],0.9163
11,O=C(c1ccc(F)cc1)N1CC(COc2ccc(Br)cc2)(C(=O)O)C1 [PF-04475866],0.9754
12,Cn1cc(Cl)c2c(Oc3c(F)cc(Nc4cc(Cl)nc(N)n4)cc3F)ccnc21 [BAY-4900],1.21
13,CCC(=O)N[C@H]1CC[C@@H](C(=O)N(C)c2ccc(-c3nc4ccccc4o3)cc2)C1 [BI 99179],0.6872
14,Cc1ccc(NC(=O)Nc2cc(C(F)(F)F)ccc2F)cc1Nc1ccc2c(c1)NC(=O)/C2=C\c1ccc[nH]1,0.7659
15,Cc1ccc2nc(CNCCCOc3ccccc3)cc(O)c2c1 [UCSF924],1.046
16,CCS(=O)(=O)c1cc2cc(C[C@](O)(CC(C)(C)c3ccc(F)cc3C(N)=O)C(F)(F)F)[nH]c2cn1 [BI 653048],0.9178
17,CCNC(=O)c1cc2c(N3CCOC[C@@H]3C)ccnc2[nH]1,0.9047
18,CN(C)C(=O)Cn1cc(-c2ccc(-c3nnc4ccccn34)cc2)cn1,1.225
19,Cc1c(N2CCNCC2)nc2ccc(Br)cc2c1C(=O)NC[C@H](CCC(=O)O)c1ccccc1Cl [BAY-403],0.887
20,COCCOc1nc(-c2ccc(Cl)nc2)nc2c1CN(C(=O)c1ncn3ccccc13)CC2 [THPP-1],1.038
21,Cc1cc(NC(=O)c2cccc(S(F)(F)(F)(F)F)c2)cc(-n2ccn3nc(-c4cccnc4)cc23)c1 [BAY-309],1.076
22,O=C(Nc1cnc(Oc2ccc(F)cc2)nc1)N1CCc2ncccc2[C@@H]1c1ccc(F)cc1 [BAY-899],1.086
23,CCN(Cc1ccc(Cl)cc1)c1ncc(C(=O)NCCCN2CCCC2=O)c(NC2CCCC2)n1,1.023
24,C[C@H](c1ccc(F)cc1)N(Cc1ccc(Cl)c(C(=O)O)c1)C(=O)c1cnc2ccccc2c1 [PF-05257137],1.055
25,O=C(NS(=O)(=O)c1ccc(NCC2CCOCC2)c([N+](=O)[O-])c1)c1ccc(N2CCN(Cc3ccc(C(F)(F)F)cc3-c3ccc(Cl)cc3)CC2)cc1Oc1cnc2[nH]ccc2c1 [A-1210227],0.9477

row,SMILES,Cell Viability Ratio
1,Cn1cc(-c2ccc3occ(-c4cccc(-c5ccncc5)c4)c3n2)cn1,0.9731
2,CC(=O)N1CCC(c2ccc(C(=O)NC(=N)N)cc2C(F)(F)F)CC1 [BI 9627],0.903
3,CCOC(=O)c1c(/C(C#N)=C\N)c2ccc(Cl)c(Cl)c2n1C,1.055
4,CCNC(=O)c1cc2c(N3CCOC[C@@H]3C)ccnc2n1C,1.086
5,CC1=C(C#N)C(c2ccc3c(c2)c(NC(=O)c2ccccc2C)nn3C)C(C#N)=C(C)N1 [BAY-974],1.012
6,Cc1cc(Nc2nccc(C)n2)cc(-c2cnc([C@@]3(O)CC[C@H](C(=O)O)C(C)(C)C3)s2)c1 [MRL-SYKi],0.8949
7,CCOCCn1cc(C(=O)Nc2ccc(-n3nc(-c4cccnc4)cc3C(F)(F)F)cn2)ccc1=O [BI 1935],0.9955
8,Nc1nc(NCc2ccccc2)nc(-c2ccccc2CO)n1 [Ogerin],1.099
9,Cn1c(-c2csc(C3CCN(CC4=NC5N=CC=CC5N4)CC3)n2)nc2ccccc21 (centres undefined) [BAY-070],0.9524
10,CN1C(=O)[C@@H](N2CCc3c(nn(Cc4ccccc4)c3Br)C2=O)COc2ccccc21 [TP-030-2],1.065
11,Cc1c(C(=O)Nc2ccc(Oc3ccnc4[nH]cc(-c5ccccc5)c34)c(F)c2)c(=O)n(-c2ccc(F)cc2)n1C,0.9213
12,CC1=C(C#N)C(c2ccc3[nH]nc(C)c3c2)C(C#N)=C(C)N1 [BAY-474],0.9495
13,O=C(N1CCS(=O)(=O)CC1)N1C[C@H](c2ccc(OC(F)(F)F)cc2)C[C@H](c2nc(C3CC3)no2)C1 [BAY-386],0.9974
14,Cl.Cl.Cl.c1ccc(N2CCN(Cc3nc4ccccc4[nH]3)CC2)nc1,0.9546
15,CC(=O)N1CCC(c2ccc(C(=O)NC3=NCCN3)cc2C(F)(F)F)CC1 [BI 0054],1.041
16,COc1ccc2c(c1)O[C@@H](c1ccc(OC)c(OC)c1)C[C@H]2NC(=O)C1(c2ccc3c(c2)OC(F)(F)O3)CC1 [A-1596586],1.062
17,N#CC1(c2ccccn2)CCN(Cc2cc(C(=O)N3CCCC3)c(=O)n3ccccc23)CC1 [MSD-M1PAM-NC],1.068
18,CCCOc1ccc([C@H]2[C@H](C(=O)O)[C@@H](c3ccc4c(c3)OCO4)CN2CC(=O)Nc2c(CC)cccc2CC)cc1 [A-192621],1.0774
19,CN(C)C(=O)/C(C#N)=C/c1ccc(-c2nc3cnc4[nH]ccc4c3n2C2CCCCC2)o1,0.9378
20,CN(C)C(=O)Cn1cc(-c2ccc(-c3cncc4ccccc34)cc2)cn1,0.9698
21,CS(=O)(=O)c1cc(C2(NC(=O)c3cncc4c3cnn4-c3ccc(F)cc3)CC2)ccn1 [BI 639667],0.9024
22,O=C(NCCN1CCOCC1)c1ccc2c(c1)C(=O)c1ccc(Nc3ccc(F)c(NC(=O)c4ccccc4)c3)cc1CC2 [FS-694],0.8259
23,Cc1c(NC(=O)c2cc(C(N)=O)nc3cc(F)ccc23)c(C(F)(F)F)nn1Cc1ccc(C#N)cc1 [BAY-876],1.117
24,CCCCN(CCCC)C(=O)CN1C[C@H](c2cc(OC)c3c(c2)OCO3)[C@@H](C(=O)O)[C@@H]1CC(C)(C)CCC.Cc1ccc(S(=O)(=O)O)cc1,0.9627

# — ChEMBL document CHEMBL5724803, “Viability screening in matched tumor and normal assay results for EUbOPEN Chemogenomics Library” (2024)
